Results reported in patent US11311593B2, “Root extracts from plants of the Morus genus and uses of same” (PLANT ADVANCED TECHNOLOGIES PAT, priority 2017, dated 2022).
Entries after “also recorded” stand apart in the source; their conditions may differ.

Tests used:
[1] = test system: collagenase obtained from Clostridium Histolyticum; assay: Target Binding affinity test for collagenase; details: ligands in non-stimulated M. alba root extract; moracenin B = reference ligand
Description: A root extract of Morus alba was prepared in accordance with the protocol described in Example 2.1. The Target Binding® method used was that of Example 2.3 which is described in patent application FR 1 670 545. The experimental protocol was as follows:
The target, a 6.25 mg/mL solution of collagenase obtained from Clostridium histolyticum, was prepared by dissolving lyophilized enzyme powder in 50 mM saline phosphate buffer with a pH of 7.5. The sample to be analyzed corresponded to the supernatant of the root extract obtained in accordance with Example 2.1. It could be centrifuged once again before use, at 21000 g for 15 min, in order to remove any traces of solid particles. A reference sample was also prepared by diluting the sample to be analyzed 10-fold in a solution of water and a quarter of the volume of acetonitrile.
1. Preconditioning step—Wells with a filtering membrane were preconditioned with a volume of 500 μL of a saline phosphate buffer which was passed through the membrane by centrifuging at 14000 g for 60 seconds.
2. Binding step—A volume of 92.5 μL of the solution obtained from the pretreatment step was mixed with 7.5 μL of the sample to be analyzed for 10 min in a plastic Eppendorf tube.
3. Washing step—The mixture of the enzyme and the sample to be analyzed was deposited in a well that had been preconditioned in the preconditioning step, then centrifuged at 14000 g until most of the solvent had been eliminated. The enzyme-ligand complexes remained on the surface of the filter membrane, then were re-suspended in a volume of 100 μL of the same saline phosphate buffer solution and centrifuged at 14000 g until the solvent had been eliminated. This procedure was repeated three times and eliminated all of the compounds that were not bound to the enzyme. 4. Separation step—The enzyme-ligand complexes retained in the filter were re-suspended in a volume of 10 μL of ultra-pure water then mixed with a volume of 30 μL of acetonitrile in order to denature and precipitate the enzyme and, at the same time, to liberate the ligands. The mixture was centrifuged at 21000 g for 10 min in order to separate the precipitate from the supernatant. 5. Analysis step—Said supernatant was analyzed by liquid phase chromatography coupled to a mass spectrometer. The reference sample was also analyzed in the same manner, using the same analytical conditions.
The UPLC-MS analysis was carried out in accordance with the protocol described in Example 1.

fungal tyrosinase = assay: Target Binding affinity test for tyrosinase (UPLC-MS of bound ligands); details: for Relative affinity (RA) for tyrosinase: ligands in non-stimulated M. alba root extract, moracenin B = reference ligand
Source text: It is based on the principle of bringing the ligands and the target into contact in the liquid phase so that the ligands that have the greatest affinity with the target bind to it, elimination of the ligands that are not fixed, separation of the complexes in order to recover the ligands which have been fixed, then quantification of the latter. In a first step of the method, the extract and the target are mixed. The compounds of the extract compete for access to the binding sites of the target. The strongest compounds displace the weakest and are retained more effectively by the target. […] A reference sample was also prepared by diluting the sample to be analyzed 10-fold in a solution of water and a quarter of the volume of acetonitrile. […] Pre-conditioning step-Wells with a filtering membrane were pre-conditioned with a volume of 500 μL of an 85% solution of ammonium acetate and 15% of ethanol which was passed through the membrane by centrifuging at 14000 g for 60 seconds. 2. […] 3. Washing step-The mixture of the enzyme and the sample to be analyzed was deposited in a well that had been pre-conditioned in the pre-conditioning step, then centrifuged at 14000 g until most of the solvent had been eliminated. […] This procedure was repeated three times and eliminated all of the compounds that were not bound to the enzyme. 4. Separation step-The enzyme-ligand complexes retained in the filter were re-suspended in a volume of 10 μL of ultra-pure water, then mixed with a volume of 40 μL of acetonitrile in order to denature and precipitate the enzyme and, at the same time, to liberate the ligands. The mixture was centrifuged at 21000 g for 10 min in order to separate the precipitate from the supernatant. 5. Analysis step-Said supernatant was analyzed by liquid phase chromatography coupled to a mass spectrometer, also known by the acronym UPLC-MS. The reference sample was also analyzed in the same manner, using the same analytical conditions. The UPLC-MS analysis was carried out in accordance with the protocol described in Example 1. The chromatograms obtained are presented in FIGS. 3A and 3B and represent a signal intensity as a function of retention time in a column. […] Each peak is associated with one of the ligands present in the analyzed extract. The quantity associated with each ligand corresponds to the area of the peak. […] For each ligand, an affinity ratio, RACEi, was calculated as follows: [formula] where: NF is a normalization factor; […] the intensity of the analytical signal for the ligand CEi in the reference sample; ISeq,REF is the intensity of the analytical signal for the reference ligand REF (here, moracenin B) in the reference sample; […] the intensity of the analytical signal for the ligand CEi in the treated solution (the sample to be analyzed after steps 2 to 4 for binding and separation of the ligands) for the detached ligands; ISTB,REF is the intensity of the analytical signal for the reference ligand REF (here, moracenin B) in the treated solution (the sample to be analyzed after steps 2 to 4 for binding and separation of the ligands) for the detached ligands; RA, CEi is the relative affinity ratio (RA), representing an affinity of the ligand CEi for the target. The value of the ratio increases with affinity.

Compound | Relative affinity (RA) for collagenase [1] | Relative affinity (RA) for tyrosinase (fungal tyrosinase) | affinity for tyrosinase compared with the other compounds of the extract (in words) (fungal tyrosinase; peak areas of FIG. 3B / relative affinities)
CC(C)=CCc1c(O)ccc(C(=O)[C@@H]2CC(C)=C[C@H](c3c(O)cc(O)c4c(=O)c(CC=C(C)C)c(-c5ccc(O)cc5O)oc34)[C@H]2c2ccc(O)cc2O)c1O [Moracenin A, moracenin A] | 1.1 | 5.1 | 
CC(C)=CCc1c(-c2ccc(O)cc2O)oc2c([C@H]3C=C(C)C[C@H](C(=O)c4ccc(O)cc4O)[C@@H]3c3ccc(O)cc3O)c(O)cc(O)c2c1=O [Moracenin B, moracenin B] | 1.0 | 1.0 | 
CC(C)=CCc1c(O)ccc(C(=O)C2C(c3ccc(O)cc3O)CC3(C)CC2c2c(O)cc(-c4cc5ccc(O)cc5o4)cc2O3)c1O (stereo not shown) [Wittiorumin F, wittiorumin F] | 1.1 | 15.5 | greater affinity; also recorded: higher affinity
